This note sets out measurements from PubChem BioAssay (NCI).

Several values for one entry are separate records, joined by “and”; a condition that tells them apart may be missing. Equal entries are not always repeated.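 1) Cells in 96-well plates. 2) Compound, 48 h, 5 concentrations. 3) Linear interpolation between surrounding doses. 4) Unreached endpoint = highest concentration. At the GI50, growth is halved. TGI: concentration producing complete growth inhibition.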

What all share (assay): NCI tumour cell line growth inhibition, 48 h
Assay [1] has as its system P388 leukemia.
Assay [2] deals with KM20L2 colon.
The subject of assay [3] is SNB-78 CNS.
Assay [4] concerns DMS 273 small cell lung.
Assay [5] has as its system XF 498 CNS.
The test system of assay [6] is PC-3 prostate.
Assay [7] deals with MDA-MB-231 breast.
The test system of assay [8] is SR leukemia.
In assay [9] the test system is BT-549 breast.
Assay [10] has as its system HS 578T breast.
In assay [11] the test system is ACHN renal.
The subject of assay [12] is T-47D breast.

Regarding `CC12CCC(CC1)C(C)(C)O2`, the TGI stood at 55.7 µM in [1]; 116 µM in [2]; 261 µM in assay [3]; 18.3 µM in [4]; 5.51 µM in [5].
Regarding `COc1ccc(-c2c(-c3ccccc3)c(C)nc3nc(SC)nc(SC)c23)cc1OC`, the TGI in assay [6] is 41.7 µM; in assay [7] it was > 100 µM; in assay [8], 2.6 µM; in assay [9], > 100 µM; in assay [10], 82.3 µM; in assay [11], > 100 µM. Further, the TGI in assay [12] was > 100 µM.
Turning to `O=C(O)/C=C/c1c[nH]c(=O)[nH]c1=O`, the TGI in assay [1], in assay [2], in [3], in [4] and in assay [5] was > 500 µM each time. Further, in [5], the GI50 is > 500 µM and 151 µM.
As for `C=C1C(=O)OC2CC(C)C3C4OC4C(O)C3(C)C(O)C12` (stereo not drawn), the TGI is 43.7 µM in [1]; 42.8 µM in assay [2]; 61.6 µM in assay [3]; 67.2 µM in assay [4]; 47.4 µM in assay [5].
For `C=C=CC(NC(=O)c1ccccc1)(C(=O)O)C(F)(F)F` (stereo not drawn), the TGI in assay [8], in assay [3], in assay [11], in assay [4] and in assay [5] was > 100 µM each time.
As to `O=C1/C(=C/c2ccc(O)cc2)COc2ccc(O)c(O)c21`, the GI50 is 2.48 µM in assay [6]; 1.1 µM in assay [8]; 1.97 µM in assay [9]; 3.12 µM in [10]; 1.99 µM in [11]; 3.31 µM in [12]. Moreover, the TGI in assay [6] was 13 µM; in assay [8], > 100 µM; in assay [9], 7.69 µM; in [10], > 100 µM; in [11], 4.72 µM; in assay [12] it was > 100 µM.
Consider `CCCCOP(C)(=O)C(NC(=O)OCC)(C(F)(F)F)C(F)(F)F` (stereo not drawn), for which the TGI in assay [6], in assay [7], in assay [8], in [9], in [10] and in assay [11] was > 100 µM in each case. Besides, the TGI in [12] was > 100 µM.
Turning to `Cc1cccc(N2C(=O)C3c4[nH]c5ccc(C)cc5c4C4CCC(C(C)(C)C)CC4C3C2=O)c1` (stereo not drawn), the TGI was 31.3 µM in [6], 38.4 µM in [7], > 100 µM in [9] and 52.1 µM in assay [12].
In the case of `CCCCCCCCCCCCCC[n+]1ccc(C)cc1`, the GI50 in assay [6] is 0.455 µM; in assay [7], 1.34 µM; in assay [8], 0.581 µM; in assay [10] it was 2.39 µM; in assay [11], 3.23 µM; in assay [12] it was 0.831 µM. For the same compound, the TGI in [6] was determined as 2.63 µM; in assay [7], 3.7 µM; in assay [8], 2.67 µM; in assay [10], 8.8 µM; in assay [11], 10.9 µM; in [12] it was 10.6 µM.
